This assay deals with human pancreatic cancer cell cultures (line MiaPaca-2). Put plainly: MTT cell viability assay, human pancreatic cancer cells MiaPaca-2. The format is cell-based. To be noted: 1%. The protocol:
The antiproliferative activity of the lipid systems (RLO, RLO+MO and GP), formulations with incorporated SRE (RLO+MO+9% SRE and GP+9% SRE) and (digested and non-digested) non-delivered SRE was evaluated in human pancreatic cancer cell cultures (line MiaPaca-2) by means of the MTT method.
Three independent experiments were performed with different cell strains and on different days. The trend observed in terms of the effect of treatments on cell viability was similar in the 3 experiments.
The parameter used to assess the effect of a compound on cell viability is the mean inhibitory concentration (IC50), which is the product concentration inhibiting cell viability by 50%, such that the lower the IC50 of a compound is, the greater its effect will be.
For orientation: Tetrazolium dyes change colour on reduction, which living cells bring about.

On to `O=C1CCCC1` [cyclopentanone], for which the “viability of treated cells” value is “did not change”.

The values are drawn from patent publication US11478008B2, “Formulations comprising ratfish liver oil or a product of an enzymatic or chemical glycerolysis processing of ratfish liver oil and supercritical rosemary extract and uses thereof” (UNIVERSIDAD AUTÓNOMA DE MADRID, priority 2016, dated 2022).
